From PubChem BioAssay AID328 (DTP/NCI, 2004) come the findings set out here.

Toxic doses and inconclusive results are not listed.

This test has as its system BDF1 mice, P388 leukemia ip, median survival T/C. Description: NCI In Vivo Anticancer Drug Screen. Data for tumor model P388 Leukemia (intraperitoneal) in B6D2F1 (BDF1) mice. The following applies: endpoint: median survival time, higher = longer survival. The procedure, abridged: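 Survival ratio, drug arm over vehicle arm, in mice with a transplanted tumour.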
The mark [1] stands for this setting: dose: 25.0 mg/kg/injection, schedule: Q01DX009 (ip), vehicle: saline with Tween-80.
Where [2] appears, read: dose: 100.0 mg/kg/injection, schedule: Q04DX003 (ip), vehicle: saline with Tween-80.
Setting [3] is: dose: 200.0 mg/kg/injection, schedule: Q04DX003 (ip), vehicle: saline with Tween-80.
Where [4] appears, read: dose: 400.0 mg/kg/injection, schedule: Q04DX003 (ip), vehicle: saline with Tween-80.
The mark [5] stands for this setting: dose: 50.0 mg/kg/injection, schedule: Q01DX009 (ip), vehicle: saline with Tween-80.
The mark [6] stands for this setting: dose: 100.0 mg/kg/injection, schedule: Q01DX009 (ip), vehicle: saline with Tween-80.
The mark [7] stands for this setting: dose: 200.0 mg/kg/injection, schedule: Q01DX009 (ip), vehicle: saline with Tween-80.
The mark [8] stands for this setting: dose: 400.0 mg/kg/injection, schedule: Q01DX009 (ip), vehicle: saline with Tween-80.
[9] abbreviates: dose: 100.0 mg/kg/injection, schedule: Q04DX003 (ip), vehicle: other.
[10] abbreviates: dose: 200.0 mg/kg/injection, schedule: Q04DX003 (ip), vehicle: other.
[11] abbreviates: dose: 12.5 mg/kg/injection, schedule: Q01DX009 (ip), vehicle: saline.
[12] abbreviates: dose: 25.0 mg/kg/injection, schedule: Q01DX009 (ip), vehicle: saline.

As for `CCOc1nc(S(=O)(=O)CC)ncc1C`, the T/C under setting [1] is 92 % of control; the T/C (dose: 75.0 mg/kg/injection, schedule: Q01DX009 (ip), vehicle: saline with Tween-80) is 90 % of control; the T/C under setting [2] is 105 % of control; the T/C (dose: 150.0 mg/kg/injection, schedule: Q01DX009 (ip), vehicle: saline with Tween-80) was 106 % of control; the T/C under setting [3] was 96 % of control; the T/C under setting [4] was 96 % of control.
With `C=C1N(C)c2ccccc2C1(C)C`, the T/C is, setting by setting: (dose: 1.47 mg/kg/injection, schedule: Q01DX009 (ip), vehicle: saline with Tween-80) 104 % of control; (dose: 2.95 mg/kg/injection, schedule: Q01DX009 (ip), vehicle: saline with Tween-80) 118 % of control; (dose: 5.9 mg/kg/injection, schedule: Q01DX009 (ip), vehicle: saline with Tween-80) 122 % of control.
`O=[N+]([O-])c1cccc2c[n+](Cc3ccccc3)ccc12`: the T/C (dose: 12.5 mg/kg/injection, schedule: Q01DX009 (ip), vehicle: saline with Tween-80) was 117 % of control.
`CC(C)(/C=C/c1ccccc1)C(=O)O`: the T/C is 95 % of control under setting [5], 102 % of control under setting [6] and 100 % of control under setting [7].
On to `CN(C)C(=O)Nc1ccc(Cl)cc1`, for which the T/C by setting is: (dose: 50.0 mg/kg/injection, schedule: Q01DX001 (ip), vehicle: saline with Tween-80) 95 % of control; (dose: 100.0 mg/kg/injection, schedule: Q01DX001 (ip), vehicle: saline with Tween-80) 100 % of control; (dose: 200.0 mg/kg/injection, schedule: Q01DX001 (ip), vehicle: saline with Tween-80) 104 % of control.
Take `CC(C)(C)OC(=O)NC(CC(Cc1ccccc1)C(N)=O)C(=O)N1CCCC1C(=O)OCc1ccccc1` (stereo not given): the T/C runs as follows: (dose: 50.0 mg/kg/injection, schedule: Q01DX005 (ip), vehicle: saline with Tween-80) 102 % of control; (dose: 100.0 mg/kg/injection, schedule: Q01DX005 (ip), vehicle: saline with Tween-80) 95 % of control; (dose: 200.0 mg/kg/injection, schedule: Q01DX005 (ip), vehicle: saline with Tween-80) 98 % of control.
For `N#CCC(NC(=O)OCc1ccccc1)C(=O)OCc1ccccc1` (stereo not given), the T/C runs as follows: under setting [1], 100 % of control; under setting [5], 94 % of control; (dose: 50.0 mg/kg/injection, schedule: Q04DX003 (ip), vehicle: saline with Tween-80) 96 % of control; under setting [6], 88 % of control; under setting [2], 105 % of control; under setting [7], 96 % of control. For the same compound, the T/C runs as follows: under setting [3], 94 % of control; under setting [8], 96 % of control; under setting [4], 105 % of control.
With `CCOC(=O)/C(C#N)=C1/CCCN1`, the T/C was 104 % of control under setting [6], 100 % of control under setting [7] and 100 % of control under setting [8].
On to `CCCCNC(c1ccc(C=NC(CC)(CO)CO)cc1)C(Br)(Br)Br` (stereo not given), for which the T/C (dose: 50.0 mg/kg/injection, schedule: Q04DX003 (ip), vehicle: other) was 100 % of control; the T/C under setting [9] is 100 % of control; the T/C under setting [10] was 104 % of control.
Consider `CC1(C)CC(=O)C(C(c2cccc(O)c2O)C2C(=O)CC(C)(C)CC2=O)C(=O)C1`, for which the T/C runs as follows: under setting [5], 123 % of control; under setting [6], 100 % of control; under setting [7], 91 % of control.
For `Nc1cccc2c1C(=O)c1cccc(NC(=O)c3ccccc3)c1C2=O`, the T/C was 104 % of control (dose: 6.25 mg/kg/injection, schedule: Q01DX009 (ip), vehicle: Klucel (hydroxypropylcellulose) (HPC)); 109 % of control (dose: 12.5 mg/kg/injection, schedule: Q01DX009 (ip), vehicle: Klucel (hydroxypropylcellulose) (HPC)); 116 % of control (dose: 25.0 mg/kg/injection, schedule: Q01DX009 (ip), vehicle: Klucel (hydroxypropylcellulose) (HPC)); 113 % of control (dose: 50.0 mg/kg/injection, schedule: Q01DX009 (ip), vehicle: Klucel (hydroxypropylcellulose) (HPC)); 115 % of control (dose: 100.0 mg/kg/injection, schedule: Q01DX009 (ip), vehicle: Klucel (hydroxypropylcellulose) (HPC)); 122 % of control (dose: 200.0 mg/kg/injection, schedule: Q01DX009 (ip), vehicle: Klucel (hydroxypropylcellulose) (HPC)). Where the note is “dose: 400.0 mg/kg/injection, schedule: Q01DX009 (ip), vehicle: Klucel (hydroxypropylcellulose) (HPC)”, the T/C is 151 % of control.
On to `c1cc[c]([Sn]([c]2ccccc2)([c]2ccccc2)[n]2cncn2)cc1`, for which the T/C is 106 % of control (dose: 3.12 mg/kg/injection, schedule: Q01DX009 (ip), vehicle: saline with Tween-80) and 106 % of control (dose: 6.25 mg/kg/injection, schedule: Q01DX009 (ip), vehicle: saline with Tween-80).
On to `O=C(Oc1cc(Cl)ccc1Cl)c1ccccc1`, for which the T/C under setting [5] is 122 % of control, the T/C under setting [6] is 89 % of control and the T/C under setting [8] was 89 % of control.
`Clc1nc2ccccc2n2nnnc12`: the T/C by setting is: (dose: 5.0 mg/kg/injection, schedule: Q01DX009 (ip), vehicle: saline with Tween-80) 105 % of control; (dose: 10.0 mg/kg/injection, schedule: Q01DX009 (ip), vehicle: saline with Tween-80) 105 % of control; under setting [11], 94 % of control; (dose: 20.0 mg/kg/injection, schedule: Q01DX009 (ip), vehicle: saline with Tween-80) 107 % of control; under setting [12], 97 % of control.
For the compound `OC(c1ccc(Cl)cc1)(c1ccc(Cl)cc1)C(F)(F)F`, the T/C runs as follows: (dose: 100.0 mg/kg/injection, schedule: Q01DX009 (sc), vehicle: olive oil, sesame oil, peanut oil) 96 % of control; (dose: 100.0 mg/kg/injection, schedule: Q04DX003 (sc), vehicle: olive oil, sesame oil, peanut oil) 109 % of control; (dose: 200.0 mg/kg/injection, schedule: Q04DX003 (sc), vehicle: olive oil, sesame oil, peanut oil) 100 % of control; (dose: 400.0 mg/kg/injection, schedule: Q04DX003 (sc), vehicle: olive oil, sesame oil, peanut oil) 95 % of control.
As for `COC(=O)C1CC(O)CN1C(=O)c1c2nc3c(C(=O)N4CC(O)CC4C(=O)OC)ccc(C)c3oc-2c(C)c(=O)c1N` (stereo not given), the T/C by setting is: under setting [2], 96 % of control; under setting [3], 100 % of control; under setting [4], 114 % of control.
Turning to `CCOC(c1ccccc1)(c1ccccc1)c1ccccc1`, the T/C is, setting by setting: under setting [9], 105 % of control; under setting [10], 105 % of control; (dose: 400.0 mg/kg/injection, schedule: Q04DX003 (ip), vehicle: other) 110 % of control.
On to `O=C(C[n+]1ccc2ccccc2c1)c1ccc(Br)cc1`, for which the T/C by setting is: (dose: 7.03 mg/kg/injection, schedule: Q04DX003 (ip), vehicle: saline) 100 % of control; under setting [11], 114 % of control; (dose: 14.06 mg/kg/injection, schedule: Q04DX003 (ip), vehicle: saline) 108 % of control; under setting [12], 109 % of control; (dose: 28.12 mg/kg/injection, schedule: Q04DX003 (ip), vehicle: saline) 100 % of control; (dose: 50.0 mg/kg/injection, schedule: Q01DX009 (ip), vehicle: saline) 119 % of control. Further, the T/C was 95 % of control (dose: 56.25 mg/kg/injection, schedule: Q04DX003 (ip), vehicle: saline) and 112 % of control (dose: 75.0 mg/kg/injection, schedule: Q01DX009 (ip), vehicle: saline).
As to `CCCCCCC(O)CCCCCC`, the T/C (dose: 100.0 mg/kg/injection, schedule: Q01DX009 (ip), vehicle: other) was 90 % of control and the T/C (dose: 200.0 mg/kg/injection, schedule: Q01DX009 (ip), vehicle: other) is 105 % of control.
Turning to `C=Cn1ccnc1C(O)(c1ccc(Cl)cc1)c1ccc(Cl)cc1`, the T/C under setting [6] was 116 % of control.
As for `CC(=O)Nc1ccc(S(=O)(=O)NC(N)=O)cc1`, the T/C reads like this: under setting [6], 105 % of control; under setting [8], 98 % of control.
On to `O=C(NC(=S)N1CC1)c1ccccc1`, for which the T/C is 93 % of control under setting [5], 92 % of control under setting [6] and 104 % of control under setting [7].
